Source: PubChem BioAssay AID1918952 (Molecular Pharmacology Branch, DTP, NCI, 2023)

System: LG0703-F948-PDC complex spheroid viability
Assay: Anticancer human tumor LG0703-F948-PDC patient-derived lung adenocarcinoma cell line growth inhibition
Settings: for IC50: curve of first compound; for viability, T/C: stronger effect = lower value
How it was run: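 Drug combinations with the LSD1 inhibitor iadademstat tested on tumor cells co-cultured as spheroids with endothelial cells and mesenchymal stem cells. Concentrations descended in half-log increments from clinical Cmax or 10 microM.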

[1] = second compound 0.1 µM, first compound 0.00316 µM
[2] = second compound 0.1 µM, first compound 0.01 µM
[3] = second compound 0.1 µM, first compound 0.0316 µM
[4] = second compound 0.1 µM, first compound 0.1 µM
[5] = second compound 0.316 µM, first compound 0.00316 µM
[6] = second compound 0.316 µM, first compound 0.01 µM
[7] = second compound 0.316 µM, first compound 0.0316 µM
[8] = second compound 0.316 µM, first compound 0.1 µM
[9] = second compound 1 µM, first compound 0.00316 µM
[10] = second compound 1 µM, first compound 0.01 µM
[11] = second compound 1 µM, first compound 0.0316 µM
[12] = second compound 1 µM, first compound 0.1 µM
[13] = second compound 3.16 µM, first compound 0.00316 µM
[14] = second compound 3.16 µM, first compound 0.01 µM
[15] = second compound 3.16 µM, first compound 0.0316 µM
[16] = second compound 3.16 µM, first compound 0.1 µM
[17] = second compound 10 µM, first compound 0.00316 µM
[18] = second compound 10 µM, first compound 0.01 µM
[19] = second compound 10 µM, first compound 0.0316 µM
[20] = second compound 10 µM, first compound 0.1 µM
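Further: spheroids exposed to agents for seven days before readout.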
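Wherever viability, T/C is given: 100% = DMSO vehicle control wells as normalization base.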

## COc1cc(Nc2ncc3c(n2)-c2ccc(Cl)cc2C(c2c(F)cccc2OC)=NC3)ccc1C(=O)O + NC1CC1c1ccc(-c2cccc(O)c2)cc1
Second compound 0.1 µM
  IC50: 199 nM
Second compound 0.316 µM
  IC50: 177 nM
Second compound 1 µM
  IC50: 198 nM
Second compound 3.16 µM
  IC50: 188 nM
Second compound 10 µM
  IC50: 181 nM
[1]
  viability, T/C: 91.5%
[2]
  viability, T/C: 85.6%
[3]
  viability, T/C: 91.6%
[4]
  viability, T/C: 76.1%
Second compound 0.1 µM, first compound 0.316 µM
  viability, T/C: 32.1%
Second compound 0.1 µM, first compound 1 µM
  viability, T/C: 3.58%
[5]
  viability, T/C: 95.3%
[6]
  viability, T/C: 93.8%
[7]
  viability, T/C: 80.8%
[8]
  viability, T/C: 67.6%
Second compound 0.316 µM, first compound 0.316 µM
  viability, T/C: 33.5%
Second compound 0.316 µM, first compound 1 µM
  viability, T/C: 3.78%
[9]
  viability, T/C: 106%
[10]
  viability, T/C: 100%
[11]
  viability, T/C: 85.6%
[12]
  viability, T/C: 70.5%
Second compound 1 µM, first compound 0.316 µM
  viability, T/C: 36.3%
Second compound 1 µM, first compound 1 µM
  viability, T/C: 3.36%
[13]
  viability, T/C: 95.5%
[14]
  viability, T/C: 111%
[15]
  viability, T/C: 94.2%
[16]
  viability, T/C: 70.5%
Second compound 3.16 µM, first compound 0.316 µM
  viability, T/C: 33.1%
Second compound 3.16 µM, first compound 1 µM
  viability, T/C: 4.2%
[17]
  viability, T/C: 113%
[18]
  viability, T/C: 97.6%
[19]
  viability, T/C: 94.1%
[20]
  viability, T/C: 64.8%
Second compound 10 µM, first compound 0.316 µM
  viability, T/C: 34.8%
Second compound 10 µM, first compound 1 µM
  viability, T/C: 6.35%

## Cn1ncnc1C1c2n[nH]c(=O)c3cc(F)cc(c23)NC1c1ccc(F)cc1 (stereo not given) + NC1CC1c1ccc(-c2cccc(O)c2)cc1
Second compound 0.1 µM
  IC50: > 100 nM
Second compound 0.316 µM
  IC50: > 100 nM
Second compound 1 µM
  IC50: > 100 nM
Second compound 3.16 µM
  IC50: > 100 nM
Second compound 10 µM
  IC50: > 100 nM
Second compound 0.1 µM, first compound 0.000316 µM
  viability, T/C: 105%
Second compound 0.1 µM, first compound 0.001 µM
  viability, T/C: 114%
[1]
  viability, T/C: 94.9%
[2]
  viability, T/C: 100%
[3]
  viability, T/C: 108%
[4]
  viability, T/C: 125%
Second compound 0.316 µM, first compound 0.000316 µM
  viability, T/C: 113%
Second compound 0.316 µM, first compound 0.001 µM
  viability, T/C: 114%
[5]
  viability, T/C: 117%
[6]
  viability, T/C: 100%
[7]
  viability, T/C: 93.7%
[8]
  viability, T/C: 105%
Second compound 1 µM, first compound 0.000316 µM
  viability, T/C: 102%
Second compound 1 µM, first compound 0.001 µM
  viability, T/C: 112%
[9]
  viability, T/C: 120%
[10]
  viability, T/C: 109%
[11]
  viability, T/C: 111%
[12]
  viability, T/C: 106%
Second compound 3.16 µM, first compound 0.000316 µM
  viability, T/C: 119%
Second compound 3.16 µM, first compound 0.001 µM
  viability, T/C: 123%
[13]
  viability, T/C: 101%
[14]
  viability, T/C: 107%
[15]
  viability, T/C: 114%
[16]
  viability, T/C: 124%
Second compound 10 µM, first compound 0.000316 µM
  viability, T/C: 108%
Second compound 10 µM, first compound 0.001 µM
  viability, T/C: 101%
[17]
  viability, T/C: 104%
[18]
  viability, T/C: 100%
[19]
  viability, T/C: 100%
[20]
  viability, T/C: 99.8%

## NS(=O)(=O)OCC1CC(n2ccc3c(NC4CCc5ccccc54)ncnc32)CC1O (stereo not given) + NC1CC1c1ccc(-c2cccc(O)c2)cc1
Second compound 0.1 µM
  IC50: 683 nM
Second compound 0.316 µM
  IC50: 582 nM
Second compound 1 µM
  IC50: 559 nM
Second compound 3.16 µM
  IC50: 559 nM
Second compound 10 µM
  IC50: 302 nM
Second compound 0.1 µM, first compound 0.00949 µM
  viability, T/C: 101%
Second compound 0.1 µM, first compound 0.03 µM
  viability, T/C: 113%
Second compound 0.1 µM, first compound 0.0949 µM
  viability, T/C: 104%
Second compound 0.1 µM, first compound 0.3 µM
  viability, T/C: 75.2%
Second compound 0.1 µM, first compound 0.949 µM
  viability, T/C: 40.9%
Second compound 0.1 µM, first compound 3 µM
  viability, T/C: 19%
Second compound 0.316 µM, first compound 0.00949 µM
  viability, T/C: 118%
Second compound 0.316 µM, first compound 0.03 µM
  viability, T/C: 104%
Second compound 0.316 µM, first compound 0.0949 µM
  viability, T/C: 105%
Second compound 0.316 µM, first compound 0.3 µM
  viability, T/C: 73.9%
Second compound 0.316 µM, first compound 0.949 µM
  viability, T/C: 31.9%
Second compound 0.316 µM, first compound 3 µM
  viability, T/C: 21.6%
Second compound 1 µM, first compound 0.00949 µM
  viability, T/C: 107%
Second compound 1 µM, first compound 0.03 µM
  viability, T/C: 117%
Second compound 1 µM, first compound 0.0949 µM
  viability, T/C: 103%
Second compound 1 µM, first compound 0.3 µM
  viability, T/C: 68%
Second compound 1 µM, first compound 0.949 µM
  viability, T/C: 35.6%
Second compound 1 µM, first compound 3 µM
  viability, T/C: 18.6%
Second compound 3.16 µM, first compound 0.00949 µM
  viability, T/C: 110%
Second compound 3.16 µM, first compound 0.03 µM
  viability, T/C: 105%
Second compound 3.16 µM, first compound 0.0949 µM
  viability, T/C: 98.4%
Second compound 3.16 µM, first compound 0.3 µM
  viability, T/C: 70.4%
Second compound 3.16 µM, first compound 0.949 µM
  viability, T/C: 32.6%
Second compound 3.16 µM, first compound 3 µM
  viability, T/C: 16%
Second compound 10 µM, first compound 0.00949 µM
  viability, T/C: 107%
Second compound 10 µM, first compound 0.03 µM
  viability, T/C: 104%
Second compound 10 µM, first compound 0.0949 µM
  viability, T/C: 81.2%
Second compound 10 µM, first compound 0.3 µM
  viability, T/C: 50.8%
Second compound 10 µM, first compound 0.949 µM
  viability, T/C: 23.8%
Second compound 10 µM, first compound 3 µM
  viability, T/C: 12.6%
